One data set has as its target T1, hERG (Homo sapiens, UniProt Q12809).
T1 construct: host or cells: CHO (hERG-CHO overexpressing cells)
Description: hERG automated patch-clamp in hERG-CHO cells. In kind it is cell-based. Here is the method: Cardiotoxicity analysis was performed by Eurofins Cerep (Poitiers, France) according to [73]. hERG-CHO overexpressing cells were used to perform automated patch-clamping. Compound 7i was evaluated at 0.1, 1 and 10 µM. Activities were expressed as % inhibition of tail current.
For orientation: The hERG channel carries a current that helps repolarise heart muscle cells.

The test system of a further data set is CYP3A. As to the kind of experiment: CYP inhibition in human liver microsomes. In kind it is in vitro ADME. Conditions: read-out: CYPs inhibition CYP3A. As to the method:
(§1) The compound was classically evaluated at 10 µM for all the ADME analyses. Bidirectional permeability (apical A to basolateral B pH 6.5/7.4 and basolateral B to apical A pH 7.4/6.5) was assessed in the epithelial colorectal adenocarcinoma cell line (Caco-2 cell line). Results were expressed as × 10^−6cm/s (Papp) and as % recovery. Efflux ratio, i.e., Papp(B-A)/Papp(A-B), was calculated. Plasma protein binding was analyzed by HPLC-MS/MS after 4-h incubation at 37 °C, as described by Banker et al.. Concentration was evaluated by LC/MS-MS. CYP inhibition was performed in human liver microsomes as described in [61]. Analysis of the respective metabolites. was performed by HPLC-MS/MS. Transporter inhibition analysis was also performed in overexpressing cell lines. Respective metabolites for each specific transporter substrate were analyzed by fluorometry or scintillation counting and % inhibition of control values were calculated. P-glycoprotein transporter substrate assessment was performed by bidirectional permeability analysis (apical A to basolateral B pH 7.4/7.4 and basolateral B to apical A pH 7.4/7.4) in the Caco-2 cell line with and without verapamil, as described in [59]. Results were expressed as ×10^−6 cm/s (Papp) and as % recovery. The efflux ratio, i.e., Papp(B-A)/Papp(A-B), was calculated. CYP450 induction characterization was performed on human hepatocytes. The mRNA levels of 7 different CYPs were analyzed by qPCR, as described in [72]. The compound was evaluated at 1, 10 and 100 µM. Fold-induction values were determined and compared to cut-off values, as defined for each CYP isozyme in each hepatocyte lot.

A short description of another data set: Plasma protein binding. It counts as in vitro ADME. As to conditions: 4-h incubation at 37 °C, read-out: PPB (converted). As to the method: as §1, with “P-glycoprotein transporter substrate assessment was performed by bidirectional permeability analysis (apical A to basolateral B pH 7.4/7.4 and basolateral B to apical A pH 7.4/7.4) in the Caco-2 cell line with and without verapamil, as described in [59].” left out, “CYP450 induction characterization was performed on human hepatocytes.” left out

A short description of data set [1]: Bidirectional permeability in Caco-2 (pH 6.5/7.4). Conditions: human; for Papp A→B at 10 µM: Caco-2, pH 6.5, Caco-2, 10 µM, read-out: Permeability A/B pH6.5/7.4; for efflux ratio at 10 µM: Caco-2, pH 6.5, Papp(B-A)/Papp(A-B), pH 6.5/7.4, read-out: e-ratio (efflux ratio); for Papp B→A at 10 µM: pH 6.5, Caco-2, 10 µM, read-out: Permeability B/A pH6.5/7.4. It counts as in vitro ADME, human. As to the method:
as §1
For orientation: Caco-2 monolayers are a common model of the intestinal barrier.

Data set [2] is described as follows: Microsomal stability in human liver microsomes. In kind it is in vitro ADME. As to conditions: hLM; for half-life at 10 µM / microsomal CLint at 10 µM: human, liver microsomes. As to the method:
Metabolic stability analysis (mouse and human liver microsomes) was performed by Eurofins Cerep (Poitiers, France) at 10 µM as described in [55]. Results were obtained at 15, 30, 45 and 60 min. Results were expressed as percent of the parent compound remaining, and calculated by comparing the peak area of the compound at the time point relative to that at time 0. The half-life (t1/2) and the apparent intrinsic clearance (CLint) were evaluated.
Metabolite identification was performed by HPLC-High Resolution mass spectrometry (MS). Chromatographic separation was performed on an Accela UPLC system (Thermo Fisher Scientific Inc. Waltham, MA, USA) equipped with an ACE 3 C18-AR column (100 × 2.1 mm, particle size 3 μm; AIT, Cormeilles-en-Parisis, France) preceded by a guard column (same stationary phase). The elution was performed with a gradient mode using water (solvent A) and ACN (solvent B), all acidified with 0.1% formic acid. The linear gradient elution program was as follows: 10% of B for 2 min; linear increase from 10 to 90% of solvent B for 20 min; 1 min at 90% of B; and 2 min of re-equilibration with 10% of B for a total run of 25 min. The LC flow rate was 400 µL/min and the injection volume was 10 μL. The column oven temperature was 30 °C and the sample tray temperature 4 °C. Eluted compounds were detected in positive mode by a full mass scan (m/z 200 to 500) using a Orbitrap Mass Spectrometer Exactive (Thermo Fisher Scientific Inc. Waltham, MA, USA) equipped with a heated electrospray ionization source (HESI-II). Instrument parameters were as follows: sheath gas 35, auxiliary gas 10 (both arbitrary units), spray voltage 2.4 kV, capillary temperature 275 °C, capillary voltage 67.5 V, tube lens voltage 120 V, skimmer voltage 24 V and source temperature 350 °C. Mass spectra were recorded at an ultra-high resolution (100,000). Instrument control, data acquisition and processing were performed using the associated Thermo Scientific software package (Xcalibur v.2.2 and Exactive v1.1).
Background: Liver microsomes are vesicles of endoplasmic reticulum, rich in cytochrome P450 enzymes.

A short description of another data set: Plasma stability. It counts as in vitro ADME. As to conditions: male, CD-1, mouse, 37 °C, read-out: Plasma t½ (converted). As to the method: Plasma stability analyses were performed by M2SV (Lille, France). Incubations were performed in duplicate. The plasma (male mouse plasma CD-1, lithium-heparinized, from Sera Laboratories International Ltd. BioIVT, West Sussex, UK) was pre-incubated for 10 min at 37 °C before addition of the compound to a final concentration of 10 µM (0,1% DMSO). At the defined time points (0, 60, 1440 and 2880 min), fractions from each tube were transferred to fresh tubes containing cold CH3CN and an internal standard (Propanolol at 1 µM). After vigorous agitation and centrifugation (10 min at 10,000 rpm), the supernatants were analyzed. The degradation half-life (t1/2) values were calculated in minutes and hours via non-linear regression analysis using Microsoft® XLfit® Excel add-in from IDBS Ltd, Woking, UK.

In another data set the target is MRP1 (Homo sapiens, UniProt P33527). As to the kind of experiment: Drug transporter inhibition (ABC family). In kind it is in vitro ADME. As to conditions: transporter-overexpressing cell lines, read-out: Drug transporters inhibition MRP1. As to the method: as §1
Sequence of MRP1 (P33527 whole entry): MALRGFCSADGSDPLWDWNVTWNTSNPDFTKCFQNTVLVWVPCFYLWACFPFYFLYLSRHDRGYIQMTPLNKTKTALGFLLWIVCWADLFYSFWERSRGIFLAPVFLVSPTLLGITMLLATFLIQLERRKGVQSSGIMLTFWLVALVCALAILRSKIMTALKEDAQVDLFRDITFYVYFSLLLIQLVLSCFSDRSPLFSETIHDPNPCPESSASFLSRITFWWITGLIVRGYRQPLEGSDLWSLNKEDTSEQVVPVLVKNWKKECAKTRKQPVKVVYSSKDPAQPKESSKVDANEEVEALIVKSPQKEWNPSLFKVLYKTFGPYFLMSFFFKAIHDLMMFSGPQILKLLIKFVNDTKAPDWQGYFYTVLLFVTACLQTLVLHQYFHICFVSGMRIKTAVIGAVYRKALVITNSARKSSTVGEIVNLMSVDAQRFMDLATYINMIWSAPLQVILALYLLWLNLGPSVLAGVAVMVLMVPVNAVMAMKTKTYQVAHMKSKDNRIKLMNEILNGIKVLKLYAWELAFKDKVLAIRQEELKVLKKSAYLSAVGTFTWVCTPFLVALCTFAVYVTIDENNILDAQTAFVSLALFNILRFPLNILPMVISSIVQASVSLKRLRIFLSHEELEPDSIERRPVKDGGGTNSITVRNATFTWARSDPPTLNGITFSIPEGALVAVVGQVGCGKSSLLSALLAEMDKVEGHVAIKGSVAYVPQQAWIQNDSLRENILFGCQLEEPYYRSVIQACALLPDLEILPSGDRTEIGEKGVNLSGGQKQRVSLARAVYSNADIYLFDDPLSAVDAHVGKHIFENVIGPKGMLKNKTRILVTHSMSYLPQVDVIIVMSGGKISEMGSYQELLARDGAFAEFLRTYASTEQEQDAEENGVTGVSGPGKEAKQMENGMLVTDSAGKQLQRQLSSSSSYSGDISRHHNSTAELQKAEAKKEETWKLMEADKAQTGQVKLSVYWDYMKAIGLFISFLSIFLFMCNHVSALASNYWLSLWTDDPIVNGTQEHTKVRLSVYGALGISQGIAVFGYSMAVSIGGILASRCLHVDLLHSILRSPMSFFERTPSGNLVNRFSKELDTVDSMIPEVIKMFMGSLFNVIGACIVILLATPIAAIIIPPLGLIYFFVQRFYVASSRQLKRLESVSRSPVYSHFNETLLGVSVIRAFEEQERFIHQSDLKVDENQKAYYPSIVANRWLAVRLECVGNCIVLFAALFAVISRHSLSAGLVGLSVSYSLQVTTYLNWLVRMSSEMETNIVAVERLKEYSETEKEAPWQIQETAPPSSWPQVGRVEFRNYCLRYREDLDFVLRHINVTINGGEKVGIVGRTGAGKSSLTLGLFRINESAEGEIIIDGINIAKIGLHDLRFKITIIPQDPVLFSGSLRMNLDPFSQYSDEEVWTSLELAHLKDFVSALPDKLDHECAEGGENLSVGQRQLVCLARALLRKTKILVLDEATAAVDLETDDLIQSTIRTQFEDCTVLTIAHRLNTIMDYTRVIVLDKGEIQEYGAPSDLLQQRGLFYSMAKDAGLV
The target in a further data set is T2, P-gp (Homo sapiens, UniProt P08183).
T2 construct: in the Caco-2 cell line with and without verapamil; host or cells: Caco-2
T2 sequence (P08183 whole entry): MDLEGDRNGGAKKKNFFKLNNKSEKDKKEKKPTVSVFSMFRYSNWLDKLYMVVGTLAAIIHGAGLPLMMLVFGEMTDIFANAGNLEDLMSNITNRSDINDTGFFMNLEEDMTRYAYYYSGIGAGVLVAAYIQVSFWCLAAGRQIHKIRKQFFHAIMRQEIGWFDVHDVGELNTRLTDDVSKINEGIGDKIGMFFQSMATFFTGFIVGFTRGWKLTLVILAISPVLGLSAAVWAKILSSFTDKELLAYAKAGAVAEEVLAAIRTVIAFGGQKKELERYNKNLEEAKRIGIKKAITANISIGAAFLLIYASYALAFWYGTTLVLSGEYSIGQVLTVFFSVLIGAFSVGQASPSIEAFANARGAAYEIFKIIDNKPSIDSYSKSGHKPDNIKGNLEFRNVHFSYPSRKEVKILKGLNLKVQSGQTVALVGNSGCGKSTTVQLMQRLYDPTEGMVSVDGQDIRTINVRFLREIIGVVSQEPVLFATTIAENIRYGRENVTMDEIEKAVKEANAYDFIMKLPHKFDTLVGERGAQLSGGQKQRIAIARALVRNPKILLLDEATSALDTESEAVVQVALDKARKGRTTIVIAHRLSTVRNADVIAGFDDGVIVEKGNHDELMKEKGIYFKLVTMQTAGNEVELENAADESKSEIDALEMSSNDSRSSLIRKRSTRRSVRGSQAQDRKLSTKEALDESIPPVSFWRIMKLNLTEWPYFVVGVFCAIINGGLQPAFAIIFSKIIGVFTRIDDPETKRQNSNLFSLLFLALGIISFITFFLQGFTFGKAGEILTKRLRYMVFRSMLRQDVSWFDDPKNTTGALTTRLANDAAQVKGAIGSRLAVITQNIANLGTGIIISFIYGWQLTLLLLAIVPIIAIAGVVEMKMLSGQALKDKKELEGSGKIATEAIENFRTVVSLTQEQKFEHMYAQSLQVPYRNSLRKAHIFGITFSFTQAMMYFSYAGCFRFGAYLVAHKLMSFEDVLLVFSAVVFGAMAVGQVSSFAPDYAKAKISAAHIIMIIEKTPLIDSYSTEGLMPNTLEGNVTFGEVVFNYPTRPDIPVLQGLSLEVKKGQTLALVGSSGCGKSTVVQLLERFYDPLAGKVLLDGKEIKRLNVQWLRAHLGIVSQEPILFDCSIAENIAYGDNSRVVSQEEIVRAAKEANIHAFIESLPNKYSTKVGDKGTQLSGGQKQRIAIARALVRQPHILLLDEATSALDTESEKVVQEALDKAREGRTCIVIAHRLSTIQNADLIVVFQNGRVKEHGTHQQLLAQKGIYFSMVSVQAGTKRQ
Description: Drug transporter inhibition (ABC family). It counts as in vitro ADME. As to conditions: transporter-overexpressing cell lines, read-out: Drug transporters inhibition P-gp. As to the method:
as §1

In another data set the target is MRP2 (Homo sapiens, UniProt Q92887). As to the kind of experiment: Drug transporter inhibition (ABC family). In kind it is in vitro ADME. Conditions: transporter-overexpressing cell lines, read-out: Drug transporters inhibition MRP2. Here is the method:
as §1

Another data set deals with BCRP (Homo sapiens, UniProt Q9UNQ0). As to the kind of experiment: Drug transporter inhibition (ABC family). It counts as in vitro ADME. As to conditions: transporter-overexpressing cell lines, read-out: Drug transporters inhibition BCRP. As to the method:
as §1

Another data set addresses MRP3 (Homo sapiens, UniProt O15438). As to the kind of experiment: Drug transporter inhibition (ABC family). It counts as in vitro ADME. As to conditions: transporter-overexpressing cell lines, read-out: Drug transporters inhibition MRP3. Here is the method: as §1

The structures appear in SMILES notation. Read-outs that look alike come from different tables or passages of the source.

What is called IC50 is the midpoint of a concentration-inhibition curve. What is called inhibition is the change of the read-out against control, counted positive when it falls. A word on the microsomal CLint: it is the rate of metabolic loss divided by the concentration.

Sequence of MRP2 (Q92887 whole entry): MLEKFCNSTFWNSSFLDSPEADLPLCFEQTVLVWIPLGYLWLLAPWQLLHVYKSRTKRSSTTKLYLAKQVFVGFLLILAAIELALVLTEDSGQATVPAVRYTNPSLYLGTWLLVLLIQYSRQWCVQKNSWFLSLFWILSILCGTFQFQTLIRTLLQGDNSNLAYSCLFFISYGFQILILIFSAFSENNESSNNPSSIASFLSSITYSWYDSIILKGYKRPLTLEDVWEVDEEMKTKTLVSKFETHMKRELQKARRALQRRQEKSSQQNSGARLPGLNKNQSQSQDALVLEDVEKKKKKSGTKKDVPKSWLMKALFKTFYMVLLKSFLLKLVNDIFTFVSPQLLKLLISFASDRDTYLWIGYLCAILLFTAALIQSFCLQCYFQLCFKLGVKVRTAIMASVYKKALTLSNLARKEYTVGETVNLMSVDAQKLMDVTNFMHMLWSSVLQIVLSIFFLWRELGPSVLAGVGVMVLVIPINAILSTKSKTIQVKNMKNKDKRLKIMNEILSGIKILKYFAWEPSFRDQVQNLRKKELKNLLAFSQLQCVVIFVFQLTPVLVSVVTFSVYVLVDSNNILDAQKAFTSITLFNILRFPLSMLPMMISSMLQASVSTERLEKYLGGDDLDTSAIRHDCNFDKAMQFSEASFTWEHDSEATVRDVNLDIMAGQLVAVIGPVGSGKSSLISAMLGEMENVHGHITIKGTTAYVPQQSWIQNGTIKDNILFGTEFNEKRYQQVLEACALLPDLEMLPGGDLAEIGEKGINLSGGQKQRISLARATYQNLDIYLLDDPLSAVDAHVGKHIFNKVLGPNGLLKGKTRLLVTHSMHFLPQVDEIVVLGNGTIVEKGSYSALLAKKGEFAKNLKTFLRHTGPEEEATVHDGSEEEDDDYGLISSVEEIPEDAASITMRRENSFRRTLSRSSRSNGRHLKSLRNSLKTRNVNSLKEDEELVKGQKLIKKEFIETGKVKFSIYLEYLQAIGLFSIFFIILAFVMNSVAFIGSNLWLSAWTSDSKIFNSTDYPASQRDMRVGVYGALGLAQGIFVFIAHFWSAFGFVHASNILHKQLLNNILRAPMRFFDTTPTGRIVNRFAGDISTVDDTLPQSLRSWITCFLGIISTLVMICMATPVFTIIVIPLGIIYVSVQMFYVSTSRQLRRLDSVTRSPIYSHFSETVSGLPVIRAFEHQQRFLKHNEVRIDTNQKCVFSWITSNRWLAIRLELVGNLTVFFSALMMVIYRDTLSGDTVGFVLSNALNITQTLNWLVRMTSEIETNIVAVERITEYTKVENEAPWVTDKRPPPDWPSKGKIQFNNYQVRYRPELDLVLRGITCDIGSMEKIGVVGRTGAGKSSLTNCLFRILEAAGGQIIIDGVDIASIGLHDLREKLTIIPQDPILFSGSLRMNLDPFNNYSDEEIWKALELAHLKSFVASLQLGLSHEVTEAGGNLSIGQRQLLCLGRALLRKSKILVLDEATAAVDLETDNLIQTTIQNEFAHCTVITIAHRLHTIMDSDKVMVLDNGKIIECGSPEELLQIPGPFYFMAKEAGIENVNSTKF
Sequence of BCRP (Q9UNQ0 whole entry): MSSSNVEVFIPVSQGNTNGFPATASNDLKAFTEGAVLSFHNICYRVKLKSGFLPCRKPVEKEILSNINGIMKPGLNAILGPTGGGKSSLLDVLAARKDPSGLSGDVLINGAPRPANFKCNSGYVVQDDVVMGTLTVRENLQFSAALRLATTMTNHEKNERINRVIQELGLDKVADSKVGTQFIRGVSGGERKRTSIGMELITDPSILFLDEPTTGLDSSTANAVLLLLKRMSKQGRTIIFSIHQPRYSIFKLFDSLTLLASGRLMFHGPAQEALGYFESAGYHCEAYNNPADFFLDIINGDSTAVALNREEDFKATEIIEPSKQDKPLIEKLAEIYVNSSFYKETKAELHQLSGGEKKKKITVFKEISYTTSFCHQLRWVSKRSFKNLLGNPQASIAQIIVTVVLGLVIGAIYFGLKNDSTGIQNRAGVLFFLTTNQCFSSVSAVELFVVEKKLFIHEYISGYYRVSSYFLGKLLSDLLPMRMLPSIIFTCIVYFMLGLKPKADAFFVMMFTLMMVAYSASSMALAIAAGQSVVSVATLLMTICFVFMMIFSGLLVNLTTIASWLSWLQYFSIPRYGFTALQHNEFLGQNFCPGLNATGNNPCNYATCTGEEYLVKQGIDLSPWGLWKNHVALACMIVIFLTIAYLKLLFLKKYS

For the molecule `O=C(NCCCNCc1ccccc1)c1ccc(Cl)cc1` [compound 7i-deMe], on hERG (read-out: hERG IC50), the IC50 was found to be 1.2 µM. Further, the inhibition at 10 µM in the data set with CYP3A was 3.2%; at MRP1 it was -3.4%; at P-gp, 1%; at MRP2, -11.5%; on BCRP, -3%; on MRP3, -0.6%. Also, the fraction unbound at 4 h, 10 µM in the data set “Plasma protein binding” was 0.19. In addition, the Papp A→B at 10 µM in data set [1] was 31.1 ×10⁻⁶ cm/s. Moreover, the efflux ratio at 10 µM in data set [1] was found to be 1.7. The Papp B→A at 10 µM in data set [1] is 51.5 ×10⁻⁶ cm/s. For the same molecule, the t1/2 in [2] (10 µM) was found to be 10.0 h. For the same molecule, the “Compound Remaining (1 h, %)” value in [2] (10 µM) was 83%. The half-life at 10 µM in [2] was > 9 h; in “Plasma stability”, 23 h. Moreover, the microsomal CLint at 10 µM in data set [2] is < 115 µL/min/mg.
For `CN(CCCNC(=O)c1ccc(Cl)cc1)Cc1ccccc1` [compound 7i], the IC50 at hERG (Table 4, read-out: hERG inhibition IC50) worked out at 1 µM. Also, the inhibition at 10 µM with CYP3A is 36.9%; at MRP1, 1.9%; on P-gp, 10.6%; at MRP2, -18.8%; on BCRP it was 8.3%; on MRP3 it was -0.3%. Also, the fraction unbound at 4 h, 10 µM in “Plasma protein binding” was > 0.05. For the same molecule, the Papp A→B at 10 µM in data set [1] was ≤ 20 ×10⁻⁶ cm/s. Moreover, the efflux ratio at 10 µM in data set [1] was ~2. The Papp B→A at 10 µM in data set [1] came to 66.1 ×10⁻⁶ cm/s. Also, the “Compound Remaining (1 h, %)” value in data set [2] (10 µM) is on record as 66%. Further, the half-life at 10 µM is > 1 h in data set [2] and > 24 h in the data set “Plasma stability”. In data set [2], the microsomal CLint at 10 µM was < 115 µL/min/mg.

For the origin of these results see article PMC9569529, “Safe and Efficient Sigma1 Ligand: A Potential Drug Candidate for Multiple Sclerosis” (International Journal of Molecular Sciences, 2022).
